What was measured:
Type in all cases: cell-based
[1] = tested on: Strain IIIB (wild type HIV-LAI strain); experiment: cellular antiviral assay, wild type HIV; details: for pEC50 IIIB: strain IIIB, wild type HIV-LAI; for EC50: Human immunodeficiency virus 1, IIIB, read-out: pEC50 IIIB (converted)
Description: (§1) Because of the increasing emergence of drug resistant HIV strains, the present compounds were tested for their potency against clinically isolated HIV strains harboring several mutations. These mutations are associated with resistance to reverse transcriptase inhibitors and result in viruses that show various degrees of phenotypic cross-resistance to the currently commercially available drugs such as for instance AZT and delavirdine.
(§2) The antiviral activity of the compound of the present invention has been evaluated in the presence of wild type HIV and HIV mutants bearing mutations at the reverse transcriptase gene. The activity of the compounds is evaluated using a cellular assay and the residual activity is expressed in pEC50 values. The columns IIIB and A-G in the table list the pEC50 values against various strains IIIB, A-G. • Strain IIIB is wild type HIV-LAI strain • Strain A contains mutation Y181C in HIV reverse transcriptase, • Strain B contains mutation K103N in HIV reverse transcriptase, • Strain C contains mutation L100I in HIV reverse transcriptase, • Strain D contains mutation Y188L in HIV reverse transcriptase, • Strain E contains mutations L100I and K103N in HIV reverse transcriptase, • Strain F contains mutations K103N and Y181C in HIV reverse transcriptase, and • Strain G contains mutations L100I, K103N, Y181C, V179I E138G L214F, V278V/I • and A327A/V in HIV reverse transcriptase.

[2] = tested on: Strain A (mutation Y181C in HIV reverse transcriptase); experiment: cellular antiviral assay, HIV mutant strain A; details: for pEC50 A: strain A, Y181C; for EC50: Human immunodeficiency virus 1, read-out: pEC50 A (converted)
Description: as §1, §2

[3] = tested on: Strain B (mutation K103N in HIV reverse transcriptase); experiment: cellular antiviral assay, HIV mutant strain B; details: for pEC50 B: strain B, K103N; for EC50: Human immunodeficiency virus 1, read-out: pEC50 B (converted)
Description: as §1, §2

[4] = tested on: Strain C (mutation L100I in HIV reverse transcriptase); experiment: cellular antiviral assay, HIV mutant strain C; details: for pEC50 C: strain C, L100I; for EC50: Human immunodeficiency virus 1, read-out: pEC50 C (converted)
Description: as §1, §2

[5] = tested on: Strain D (mutation Y188L in HIV reverse transcriptase); experiment: cellular antiviral assay, HIV mutant strain D; details: for pEC50 D: strain D, Y188L; for EC50: Human immunodeficiency virus 1, read-out: pEC50 D (converted)
Description: as §1, §2

[6] = tested on: Strain E (mutations L100I and K103N in HIV reverse transcriptase); experiment: cellular antiviral assay, HIV mutant strain E; details: for pEC50 E: strain E, L100I and K103N; for EC50: Human immunodeficiency virus 1, read-out: pEC50 E (converted)
Description: as §1, §2

[7] = tested on: Strain F (mutations K103N and Y181C in HIV reverse transcriptase); experiment: cellular antiviral assay, HIV mutant strain F; details: for pEC50 F: strain F, K103N and Y181C; for EC50: Human immunodeficiency virus 1, read-out: pEC50 F (converted)
Description: as §1, §2

[8] = tested on: Strain G (mutations L100I, K103N, Y181C, V179I E138G L214F, V278V/I and A327A/V in HIV reverse transcriptase); experiment: cellular antiviral assay, HIV mutant strain G; details: for pEC50 G: strain G, L100I, K103N, Y181C, V179I E138G L214F, V278V/I and A327A/V; for EC50: Human immunodeficiency virus 1, read-out: pEC50 G (converted)
Description: as §1, §2

SMILES | pEC50 IIIB [1] | pEC50 A [2] | pEC50 B [3] | pEC50 C [4] | pEC50 D [5] | pEC50 E [6] | pEC50 F [7] | pEC50 G [8] | EC50 [1] [nM] | EC50 [2] [nM] | EC50 [3] [nM] | EC50 [4] [nM] | EC50 [5] [nM] | EC50 [6] [nM] | EC50 [7] [nM] | EC50 [8] [nM]
Cc1cc(C=CC#N)ccc1N1CCc2c(C)nc(Nc3ccc(C#N)cc3)nc21 (mixture of isomers) [Compound 1] | 8.4 | 7.9 | 9 | 8.9 | 7.7 | 7.8 | 7.1 | 5.5 |  |  |  |  |  |  |  | 
Cc1nc(Nc2ccc(C#N)cc2)nc2c1CCN2c1c(F)cc(C=CC#N)cc1F (mixture of isomers) [Compound 2] | 9.1 | 7.9 | 9.2 | 9.3 | 8.4 | 9.1 | 7.4 | 5.7 |  |  |  |  |  |  |  | 
CCc1cc(C=CC#N)cc(CC)c1N1CCc2c(C)nc(Nc3ccc(C#N)cc3)nc21 (mixture of isomers) [Compound 3] | 7.9 | 7.8 | 8.5 | 8.7 | 7.8 | 8.5 | 7.7 | 5.7 |  |  |  |  |  |  |  | 
Cc1nc(Nc2ccc(C#N)cc2)nc2c1CCN2c1ccc(C=CC#N)cc1F (mixture of isomers) [Compound 5] | 7.7 | 6.3 | 7.9 | 7.8 | 6.6 | 6.9 |  | <4.6 |  |  |  |  |  |  |  | 
CCc1cc(C=CC#N)cc(Br)c1N1CCc2c(C)nc(Nc3ccc(C#N)cc3)nc21 (mixture of isomers) [Compound 6] | 8.3 | 7.7 | 8.3 | 8.4 | 7.5 | 8.3 | 7.5 | 5.5 |  |  |  |  |  |  |  | 
Cc1nc(Nc2ccc(C#N)cc2)nc2c1CCN2c1c(Cl)cc(C=CC#N)cc1Cl (mixture of isomers) [Compound 7a] | 8.7 | 7.9 | 8.7 | 9.1 | 7.7 | 8.6 | 7.7 | 5.4 |  |  |  |  |  |  |  | 
Cc1nc(Nc2ccc(C#N)cc2)nc2c1CCN2c1c(Cl)cc(C=CC#N)cc1Cl (mixture of isomers) [Compound 7b] | 9.1 | 8.1 | 9 | 9.1 | 7.7 | 8.5 | 7.7 | 5.4 |  |  |  |  |  |  |  | 
Cc1cc(C=CC#N)cc(Br)c1N1CCc2c(C)nc(Nc3ccc(C#N)cc3)nc21 (mixture of isomers) [Compound 9] | 8.9 | 8.3 | 8.4 | 8.7 | 8.4 | 7.8 | 7.7 | <4.6 |  |  |  |  |  |  |  | 
Cc1cc(C=CC#N)cc(C)c1N1CCc2c(C)nc(Nc3ccc(C#N)cc3)nc21 (mixture of isomers) [Compound 11] | 8.8 | 8.2 | 9 | 8.8 | 8.1 | 8.4 | 7.9 | 5.4 |  |  |  |  |  |  |  | 
CCc1cc(/C=C/C#N)ccc1N1CCc2c(C)nc(Nc3ccc(C#N)cc3)nc21 [Compound 4] | 8.4 | 8.3 | 9 | 9 | 7.9 | 8.1 | 7.6 | 5.1 |  |  |  |  |  |  |  | 
COc1cc(/C=C/C#N)cc(C)c1N1CCc2c(C)nc(Nc3ccc(C#N)cc3)nc21 [Compound 8] | 8.5 | 7.6 | 8.4 | 8.3 | 7.5 | 7.6 | 7.2 | 4.9 |  |  |  |  |  |  |  | 
Cc1nc(Nc2ccc(C#N)cc2)nc2c1CCN2c1c(F)cc(/C=C/C#N)cc1Cl [Compound 10] | 9.2 | 8.4 | 9.1 | 9.2 | 8 | 8.7 | 7.9 | 5.7 |  |  |  |  |  |  |  | 
Cc1nc(Nc2ccc(C#N)cc2)nc2c1CCN2c1c(F)cc(/C=C\C#N)cc1Cl [Compound 13] | 8.4 | 7.1 | 8.4 | 8.4 | 7 | 7.8 | 7 | 5.1 |  |  |  |  |  |  |  | 
Cc1cc(CCC#N)ccc1N1CCc2c(C)nc(Nc3ccc(C#N)cc3)nc21 [Compound 14] | 8.9 | 7.8 | 8.5 | 8.4 | 7 | 7.2 | 6.9 | 5.5 |  |  |  |  |  |  |  | 
Cc1cc(CCC#N)cc(C)c1N1CCc2c(C)nc(Nc3ccc(C#N)cc3)nc21 [Compound 15] | 9 | 8.2 | 8.6 |  | 7.3 | 8 | 8 | 5.7 |  |  |  |  |  |  |  | 
CCc1cc(CCC#N)cc(CC)c1N1CCc2c(C)nc(Nc3ccc(C#N)cc3)nc21 [Compound 16] | 8.2 | 7.7 | 8.2 | 8.6 | 7 | 8.1 | 7.3 | 5.8 |  |  |  |  |  |  |  | 
CCc1cc(CCC#N)ccc1N1CCc2c(C)nc(Nc3ccc(C#N)cc3)nc21 [Compound 17] | 9 | 8.2 | 8.9 | 8.6 | 7.7 | 7.8 | 7.2 | 5.7 |  |  |  |  |  |  |  | 
CCc1nc2cnc(Nc3ccc(C#N)cc3)nc2n1-c1c(C)cc(/C=C/C#N)cc1C [Compound 22] |  |  |  |  |  |  |  |  | 3.98 | 316 | 3.98 | 316 | 1580 | 3160 | 1580 | 
Cc1cc(/C=C/C#N)cc(C)c1-n1c(-c2ccccc2)nc2cnc(Nc3ccc(C#N)cc3)nc21 [Compound 23] | 7.7 | 7.1 | 7.6 | 7.5 | 7.7 | 6.3 | 6.4 | 5.7 |  |  |  |  |  |  |  | 
N#C/C=C/c1cc(F)c(-n2cnc3cnc(Nc4ccc(C#N)cc4)nc32)c(Cl)c1 [Compound 24] |  |  |  |  |  |  |  |  | 0.1 | 3.16 | 0.1 | 0.2 | 12.6 | 6.31 | 12.6 | 2000
N#C/C=C/c1cc(F)c(-n2c(N)nc3cnc(Nc4ccc(C#N)cc4)nc32)c(Cl)c1 [Compound 27] |  |  |  |  |  |  |  |  | 20 | 79.4 |  | 79.4 | 501 | 631 | 200 | 6310
Cc1cc(/C=C/C#N)cc(C)c1-n1nnc2cnc(Nc3ccc(C#N)cc3)nc21 [Compound 29] | 9.1 | 7.8 | 8.8 | 8.3 | 7.7 | 7.1 |  | 5.4 |  |  |  |  |  |  |  | 

Reference: US9802943B2, “HIV inhibiting bicyclic pyrimidine derivatives” (Janssen Sciences Ireland UC, priority 2004, dated 2017)
